Source: ChEMBL document CHEMBL1127073, “(+)-Hemipalmitoylcarnitinium strongly inhibits carnitine palmitoyltransferase-I in intact mitochondria” (J Med Chem, 1993)
Blank lines part the entries; values can stand above or below the molecule they belong to.

Experiments:
[1] = target: T1, Carnitine O-palmitoyltransferase 1, liver isoform (Rattus norvegicus, UniProt P32198); experiment: (§1) Compound was evaluated for its ability to inhibit carnitine palmitoyltransferase I activity in intact mitochondria from rat liver
T1 sequence (P32198 whole entry): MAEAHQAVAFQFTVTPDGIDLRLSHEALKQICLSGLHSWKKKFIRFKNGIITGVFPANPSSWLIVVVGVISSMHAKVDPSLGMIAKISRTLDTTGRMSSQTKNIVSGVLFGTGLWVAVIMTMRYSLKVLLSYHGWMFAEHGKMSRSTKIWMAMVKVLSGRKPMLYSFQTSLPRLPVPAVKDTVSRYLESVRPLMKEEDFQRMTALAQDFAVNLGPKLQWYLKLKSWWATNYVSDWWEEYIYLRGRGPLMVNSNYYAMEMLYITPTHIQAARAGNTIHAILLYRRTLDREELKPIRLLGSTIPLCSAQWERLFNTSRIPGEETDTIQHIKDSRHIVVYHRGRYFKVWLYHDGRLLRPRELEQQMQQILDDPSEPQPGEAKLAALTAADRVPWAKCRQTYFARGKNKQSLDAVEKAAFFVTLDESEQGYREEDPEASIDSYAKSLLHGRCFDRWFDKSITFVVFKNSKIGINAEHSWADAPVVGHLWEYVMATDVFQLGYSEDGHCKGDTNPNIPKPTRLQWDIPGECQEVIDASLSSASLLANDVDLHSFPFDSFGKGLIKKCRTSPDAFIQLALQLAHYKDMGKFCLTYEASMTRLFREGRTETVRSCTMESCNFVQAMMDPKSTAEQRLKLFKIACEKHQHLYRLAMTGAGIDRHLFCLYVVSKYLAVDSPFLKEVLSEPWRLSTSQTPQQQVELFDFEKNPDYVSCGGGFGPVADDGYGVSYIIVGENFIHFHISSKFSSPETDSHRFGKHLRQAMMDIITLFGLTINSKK

[2] = target: T2, Carnitine O-palmitoyltransferase 1, muscle isoform (Rattus norvegicus, UniProt Q63704); experiment: (§2) Compound was evaluated for its ability to inhibit carnitine palmitoyltransferase I activity in intact mitochondria from rat heart
T2 sequence (Q63704 whole entry): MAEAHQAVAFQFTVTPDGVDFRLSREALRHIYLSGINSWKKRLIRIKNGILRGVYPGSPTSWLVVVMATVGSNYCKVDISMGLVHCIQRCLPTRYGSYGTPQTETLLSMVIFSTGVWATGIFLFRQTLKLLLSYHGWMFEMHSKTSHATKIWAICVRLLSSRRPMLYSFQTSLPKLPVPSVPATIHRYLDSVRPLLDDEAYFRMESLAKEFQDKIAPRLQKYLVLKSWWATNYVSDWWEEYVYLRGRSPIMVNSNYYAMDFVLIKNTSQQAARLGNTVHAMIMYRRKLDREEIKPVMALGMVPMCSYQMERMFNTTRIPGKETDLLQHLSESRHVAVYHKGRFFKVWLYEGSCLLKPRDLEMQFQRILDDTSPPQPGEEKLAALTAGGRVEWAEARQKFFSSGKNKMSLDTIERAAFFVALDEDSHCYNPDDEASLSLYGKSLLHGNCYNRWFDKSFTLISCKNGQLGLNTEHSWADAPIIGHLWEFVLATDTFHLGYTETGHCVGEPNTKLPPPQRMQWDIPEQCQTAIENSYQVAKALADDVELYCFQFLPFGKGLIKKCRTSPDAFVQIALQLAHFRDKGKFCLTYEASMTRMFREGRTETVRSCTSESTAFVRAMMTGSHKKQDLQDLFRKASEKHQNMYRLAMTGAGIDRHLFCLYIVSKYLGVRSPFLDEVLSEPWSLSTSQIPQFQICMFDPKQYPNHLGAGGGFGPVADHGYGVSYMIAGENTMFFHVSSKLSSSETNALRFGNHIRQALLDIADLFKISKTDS

[3] = compound: CCCCCCCCCCCCCCC[C@@]1(O)C[N+](C)(C)C[C@@H](CC(=O)[O-])O1; experiment: as §1
[4] = compound: CCCCCCCCCCCCCCC[C@@]1(O)C[N+](C)(C)C[C@@H](CC(=O)[O-])O1; experiment: as §2

Ki [1]: 4.2 µM
Ki [2]: 2.8 µM
Molecule: CCCCCCCCCCCCCCC[C@@]1(O)C[N+](C)(C)C[C@@H](CC(=O)[O-])O1 [HEMIACYLCARNITINIUM]

B1: Carnitine O-palmitoyltransferase 1, liver isoform (Rattus norvegicus), P32198 (protein)
chain: MAEAHQAVAFQFTVTPDGIDLRLSHEALKQICLSGLHSWKKKFIRFKNGIITGVFPANPSSWLIVVVGVISSMHAKVDPSLGMIAKISRTLDTTGRMSSQTKNIVSGVLFGTGLWVAVIMTMRYSLKVLLSYHGWMFAEHGKMSRSTKIWMAMVKVLSGRKPMLYSFQTSLPRLPVPAVKDTVSRYLESVRPLMKEEDFQRMTALAQDFAVNLGPKLQWYLKLKSWWATNYVSDWWEEYIYLRGRGPLMVNSNYYAMEMLYITPTHIQAARAGNTIHAILLYRRTLDREELKPIRLLGSTIPLCSAQWERLFNTSRIPGEETDTIQHIKDSRHIVVYHRGRYFKVWLYHDGRLLRPRELEQQMQQILDDPSEPQPGEAKLAALTAADRVPWAKCRQTYFARGKNKQSLDAVEKAAFFVTLDESEQGYREEDPEASIDSYAKSLLHGRCFDRWFDKSITFVVFKNSKIGINAEHSWADAPVVGHLWEYVMATDVFQLGYSEDGHCKGDTNPNIPKPTRLQWDIPGECQEVIDASLSSASLLANDVDLHSFPFDSFGKGLIKKCRTSPDAFIQLALQLAHYKDMGKFCLTYEASMTRLFREGRTETVRSCTMESCNFVQAMMDPKSTAEQRLKLFKIACEKHQHLYRLAMTGAGIDRHLFCLYVVSKYLAVDSPFLKEVLSEPWRLSTSQTPQQQVELFDFEKNPDYVSCGGGFGPVADDGYGVSYIIVGENFIHFHISSKFSSPETDSHRFGKHLRQAMMDIITLFGLTINSKK
Km [3]: 350 µM

B2: Carnitine O-palmitoyltransferase 1, muscle isoform (Rattus norvegicus), Q63704 (protein)
chain: MAEAHQAVAFQFTVTPDGVDFRLSREALRHIYLSGINSWKKRLIRIKNGILRGVYPGSPTSWLVVVMATVGSNYCKVDISMGLVHCIQRCLPTRYGSYGTPQTETLLSMVIFSTGVWATGIFLFRQTLKLLLSYHGWMFEMHSKTSHATKIWAICVRLLSSRRPMLYSFQTSLPKLPVPSVPATIHRYLDSVRPLLDDEAYFRMESLAKEFQDKIAPRLQKYLVLKSWWATNYVSDWWEEYVYLRGRSPIMVNSNYYAMDFVLIKNTSQQAARLGNTVHAMIMYRRKLDREEIKPVMALGMVPMCSYQMERMFNTTRIPGKETDLLQHLSESRHVAVYHKGRFFKVWLYEGSCLLKPRDLEMQFQRILDDTSPPQPGEEKLAALTAGGRVEWAEARQKFFSSGKNKMSLDTIERAAFFVALDEDSHCYNPDDEASLSLYGKSLLHGNCYNRWFDKSFTLISCKNGQLGLNTEHSWADAPIIGHLWEFVLATDTFHLGYTETGHCVGEPNTKLPPPQRMQWDIPEQCQTAIENSYQVAKALADDVELYCFQFLPFGKGLIKKCRTSPDAFVQIALQLAHFRDKGKFCLTYEASMTRMFREGRTETVRSCTSESTAFVRAMMTGSHKKQDLQDLFRKASEKHQNMYRLAMTGAGIDRHLFCLYIVSKYLGVRSPFLDEVLSEPWSLSTSQIPQFQICMFDPKQYPNHLGAGGGFGPVADHGYGVSYMIAGENTMFFHVSSKLSSSETNALRFGNHIRQALLDIADLFKISKTDS
Km [4]: 500 µM
